pKd: −log10 of the molar value.
What was measured:
Aster-A = target: T1, Aster-A (Homo sapiens, UniProt Q96CP6); assay: Microplate-based cholesterol transfer assay between liposomes (FRET); type: biochemical; details: Aster-A 125 nM, compound 10 μM, FRET with Rh-DHPE
T1 construct: Aster-A(359-547); GST (PreScission-cleavable) (N, cleaved yes); made in house; host or cells: E. coli OverExpress C41
T1 sequence (Q96CP6 359-547): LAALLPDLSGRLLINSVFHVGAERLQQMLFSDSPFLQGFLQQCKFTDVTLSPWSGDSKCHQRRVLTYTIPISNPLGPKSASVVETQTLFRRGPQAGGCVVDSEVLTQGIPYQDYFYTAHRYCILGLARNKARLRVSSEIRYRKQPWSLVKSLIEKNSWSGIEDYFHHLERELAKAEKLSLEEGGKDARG

ORP1 = target: T2, ORP1 (Homo sapiens, UniProt Q9BXW6); assay: Effect on intrinsic protein fluorescence, ORP1; details: protein 1 µM, excitation 280 nm
T2 construct: ORP1(534-950); host or cells: E. coli BL21(DE3)
T2 sequence (Q9BXW6 534-950): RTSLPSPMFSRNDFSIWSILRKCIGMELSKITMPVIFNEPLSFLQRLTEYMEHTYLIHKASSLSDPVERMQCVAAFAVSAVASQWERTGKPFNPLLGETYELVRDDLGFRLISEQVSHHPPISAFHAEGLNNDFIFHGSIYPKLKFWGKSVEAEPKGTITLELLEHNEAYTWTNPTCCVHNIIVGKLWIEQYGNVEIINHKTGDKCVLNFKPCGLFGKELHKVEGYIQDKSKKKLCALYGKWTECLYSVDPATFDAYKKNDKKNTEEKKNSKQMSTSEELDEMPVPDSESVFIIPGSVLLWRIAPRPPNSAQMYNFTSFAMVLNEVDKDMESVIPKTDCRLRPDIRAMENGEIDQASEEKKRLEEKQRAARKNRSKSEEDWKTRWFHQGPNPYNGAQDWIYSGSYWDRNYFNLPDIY
Description: (§1) Effect of spirooxepinoindoles on intrinsic protein fluorescence
(§2) Figure S12: Spirooxepinoindoles 21a and 15f affect intrinsic protein fluorescence in dose-dependent fashion:
(§3) Respective proteins (1 µM) were incubated with the compounds at different doses. Proteins were excited at 280 ± 10 nm and fluorescence spectra were measured from 315 ± 20 nm to 600 ± 20 nm with a step size of 2 nm. A) STARD1 and 21a. B) ORP1 and 21a. C) ORP2 and 21a. D) ORP2 and 15f.
(§4) (1 picture or pasted object on this page, not shown here)
(§5) Superdex 75 pg (Cytiva) using an ÄKTA Explorer (Cytiva) in buffer containing 10 mM Tris -HCl, pH 8, 150 mM NaCl, 5 % glycerol and 2 mM DTT.
(§6) Fluorescence intensity and polarisation
(§7) Fluorescence intensity and polarisation (FP) experiments were performed in a buffer containing 20 mM HEPES pH 7.5, 300 mM NaCl, 0.01 %v/v Tween-20, 0.5% glycerol and 2 mM DTT in a final volume of 30 µl in black, flat-bottom, non-binding 384-well plates (Corning). All compounds were dispensed using the LabCyte Echo 550 Liquid handler. […] For competition experiments, 20 nM 22-NBD-cholesterol or 80 nM 25-NBD-cholesterol was mixed with protein and incubated with desired concentrations of screening compounds (Table S4) The fluorescence polarisation signal was measured using a Spark Cyto multimode microplate reader (Tecan) with filters set at 485 ± 20 nm for excitation and at 535 ± 20 nm for emission. […]

STARD1 = target: T3, STARD1 (Homo sapiens, UniProt P49675); assay: Effect on intrinsic protein fluorescence, STARD1; details: protein 1 µM, excitation 280 nm
T3 construct: STARD1(66-284); made in house; host or cells: E. coli BL21(DE3)
T3 sequence (P49675 66-284): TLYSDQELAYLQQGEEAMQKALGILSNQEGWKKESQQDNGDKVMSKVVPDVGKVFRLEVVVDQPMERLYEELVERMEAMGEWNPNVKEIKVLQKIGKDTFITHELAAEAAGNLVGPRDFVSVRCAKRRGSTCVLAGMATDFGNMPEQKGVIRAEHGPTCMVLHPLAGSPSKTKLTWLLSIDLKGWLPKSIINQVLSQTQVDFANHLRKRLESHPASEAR
Description: as §1, §2, §3, §4, §5, §6, §7

STARD5 = target: T4, STARD5 (Homo sapiens, UniProt Q9NSY2); design: method as in Depta et al.[43]; details: data reproduced; ref Depta et al.[43]; read-out: STARD5 Kd,app (DSF); cited from earlier work
T4 construct: STARD5(6-213); host or cells: E. coli BL21(DE3)
T4 sequence (Q9NSY2 6-213): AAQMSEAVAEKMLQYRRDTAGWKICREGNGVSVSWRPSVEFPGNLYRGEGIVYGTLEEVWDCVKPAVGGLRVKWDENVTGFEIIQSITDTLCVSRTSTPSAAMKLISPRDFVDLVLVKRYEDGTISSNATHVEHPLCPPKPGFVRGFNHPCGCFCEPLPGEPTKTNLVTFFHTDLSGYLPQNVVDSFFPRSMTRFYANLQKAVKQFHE

With CC12CCC3CC1CCC21C(=Nc2ccc(N4CCOCC4)cc21)O3 (single isomer, unassigned; (-)) [(−)-19a] the “Inhibition of Aster-A mediated transport of 23-BODIPY-cholesterol between synthetic liposomes” value (Aster-A) was “inhibited”.

With C[C@]12CC[C@@H]3C[C@H]1CC[C@@]21C(=Nc2ccc(-c4ccccc4)cc21)O3 [Compound 21a] the “Quenching of intrinsic fluorescence of ORP1” value (ORP1) was “dose-dependently quenches” and the “Quenching of intrinsic fluorescence of STARD1” value (STARD1) was “dose-dependently quenches”.

In the case of CCN(CC)CCO[C@H]1CC[C@@]2(C)C(=CC[C@@H]3[C@@H]2CC[C@]2(C)C(=O)CC[C@@H]32)C1 [Compound U18666A, reference compound], the pKd (STARD5) is given as less than 4.52.
